Assay results published in patent US8110583B2, “Tetrahydroquinoline derivatives” (Merck Patent GmbH, priority 2005, dated 2012).

Test system: cells
Test: Cell cycle analysis (G2/M arrest)
Assay type: cell-based
Settings: single substances; no data given

N=C(N)c1ccc(OCCCCCOc2ccc(C(=N)N)cc2)cc1 [pentamidine]
effect on the cell cycle: maintain cells in the G2/M cell cycle
